The conditions of series [1]: brain homogenate.
Series [2] concerns the target T1, Bovine Serum Albumin (BSA) (Bos taurus, UniProt P02769). The settings on record: isolated protein.
The subject of another series is MDCKII-MDR1 cells. The conditions noted are these: dog, 29 h, 1 μM, pH 7.5.
For series [3], the system named is P-gp (human MDR1). Description: in vitro. The conditions noted are these: dog, MDCK-MDR1, pH 7.4.
Another series in a line: in vitro. The settings on record: Göttingen, minipig, brain homogenate, pH 7.4.
The target of series [4] is T1, Bovine Serum Albumin (BSA). Description: in vitro. The conditions noted are these: isolated protein.
The test system of series [5] is P-gp (human MDR1). The experiment in a line: in vitro. The settings on record: dog.
For series [6] the following is noted: minipig, in vivo; cited from earlier work.

These results are taken from article PMC10809502, “Application of a new MDCKII-MDR1 cell model to measure the extent of drug distribution in vitro at equilibrium for prediction of in vivo unbound brain-to-plasma drug distribution” (Fluids and Barriers of the CNS, 2024).

Some results are limits rather than exact numbers.

T1 sequence (P02769 25-607): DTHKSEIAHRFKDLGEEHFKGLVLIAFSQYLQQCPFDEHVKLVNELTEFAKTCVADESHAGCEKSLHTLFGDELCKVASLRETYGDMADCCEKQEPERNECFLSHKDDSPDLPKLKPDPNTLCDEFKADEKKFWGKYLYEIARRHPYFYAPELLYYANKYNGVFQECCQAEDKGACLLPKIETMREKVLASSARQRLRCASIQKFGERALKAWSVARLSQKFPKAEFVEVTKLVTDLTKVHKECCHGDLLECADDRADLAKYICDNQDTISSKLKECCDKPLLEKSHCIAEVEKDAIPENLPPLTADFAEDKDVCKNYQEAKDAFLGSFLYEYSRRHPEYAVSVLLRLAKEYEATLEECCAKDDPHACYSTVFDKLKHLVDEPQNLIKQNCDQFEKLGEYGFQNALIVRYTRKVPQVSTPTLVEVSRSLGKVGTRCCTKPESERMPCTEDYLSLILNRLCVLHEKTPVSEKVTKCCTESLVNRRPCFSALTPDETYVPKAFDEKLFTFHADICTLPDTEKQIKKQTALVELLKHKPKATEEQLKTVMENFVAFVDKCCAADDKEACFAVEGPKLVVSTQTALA

Consider `Cc1cc(=O)n(-c2ccccc2)n1C` [Antipyrine, antipyrine], for which the “Predicted fu (%) Brain (D = 20)” value in series [1] was above 100%. For the same molecule, the “Predicted fu (%) BSA 35 μM (D = 20)” value in series [2] is listed as 99.9%. Besides, the “Kp,uu,brain in Vitro Uni-L (Det. fu)” value in the series with MDCKII-MDR1 cells is on record as 1.05. The “Kp,uu,brain in Vitro Uni-L (Pre.fu)” value in the series with MDCKII-MDR1 cells was determined as 1.24. This molecule also returned a Papp B→A at 60 min, 0.5 μM in the series with P-gp (human MDR1) [3] of 48 ± 3 ×10⁻⁶ cm/s. For the same molecule, the efflux ratio at 60 min, 0.5 μM in the series with P-gp (human MDR1) [3] was 1.2. Moreover, the fraction unbound at 5 h, 1 μM in “in vitro” is 0.843 ± 0.042; in series [4], above 1. The Kp at 29 h, 1 μM worked out at 1.2 in the series with P-gp (human MDR1) [5] (MDCK-MDR1, pH 7.5, in vitro determined Kp,brain Bi-L) and 1.2 in the series on P-gp (human MDR1) [5] (MDCK-MDR1, pH 7.5, in vitro determined Kp,brain Uni-L). For the same molecule, the recovery at 29 h, 1 μM is 77% in the series with P-gp (human MDR1) [5] (pH 7.5, Recovery Bi-L) and 77% in the series with P-gp (human MDR1) [5] (pH 7.5, Recovery Uni-L). Besides, the “Kp,uu,brain in vivo” value in series [6] is recorded as 0.80.

In general, Papp B→A refers to how fast a substance crosses the layer from the basolateral side. One may read the efflux ratio as the permeability from basolateral to apical divided by that in the opposite direction, in the common usage. The fraction unbound is free concentration divided by total concentration. Low values mean extensive binding, high ones weak binding.
